Measurements: PMC8034185, “The rumen eukaryotome is a source of novel antimicrobial peptides with therapeutic potential” (BMC Microbiology, 2021)
Values after ≈ are worked out from the molar mass of the structure shown.

Assays:
[1] = test system: S. aureus MSSA (RN4220); test: microbe, parasite or virus in culture; type: cell-based, Staphylococcus aureus; conditions: Staphylococcus aureus, MSSA, 18 h, read-out: Minimum Inhibitory Concentration, S. aureus MSSA
Experimental: (§1) MICs against a range of clinically important Gram-positive and Gram-negative bacteria strains including methicillin-sensitive Staphylococcus aureus (MSSA) RN4220 epidemic methicillin-resistant S. aureus-15 (EMRSA-15), methicillin-resistant S. aureus USA300 (MRSA USA300), Bacillus cereus, Enterococcus faecalis JH2–2, Escherichia coli K12, Salmonella enterica serovar Typhimurium SL1344, P. aeruginosa PAO1, and hospital isolates of Acinetobacter baummannii were determined in quadruplicate by a modified microdilution broth method [64] with a final bacterial inoculum concentration of 5 × 10^5 CFU/mL utilised as the test organisms. Cation-adjusted Mueller Hinton (MH) broth was innoclated overnight with a single colony of the tested microorganisms, subsequently grown for 16–24 h with shaking at 225 rpm, and further diluted in the same broth to a final concentration of 5 × 10^5 CFU/mL. The bacterial suspension was added to sterile U-bottomed 96-well plates, and the peptides and control antibiotics to be tested were dissolved in sterile distilled water and serially diluted in the wells. The MICs were recorded as the lowest peptide concentration that inhibited growth after incubation for 18 h [65].

[2] = test system: S. aureus USA300; test: microbe, parasite or virus in culture; type: cell-based, Staphylococcus aureus; conditions: Staphylococcus aureus, USA300, 18 h, read-out: Minimum Inhibitory Concentration, S. aureus USA300
Experimental: as §1

[3] = test system: S. aureus ATCC 33591; test: microbe, parasite or virus in culture; type: cell-based, Staphylococcus aureus; conditions: Staphylococcus aureus, ATCC33591, 18 h, read-out: Minimum Inhibitory Concentration, S. aureus ATCC 33591
Experimental: as §1

[4] = test system: S. aureus EMRSA-15; test: microbe, parasite or virus in culture; type: cell-based, Staphylococcus aureus; conditions: Staphylococcus aureus, EMRSA15, 18 h, read-out: Minimum Inhibitory Concentration, S. aureus EMRSA-15
Experimental: as §1

[5] = test system: Ent. faecalis (JH2–2); test: microbe, parasite or virus in culture; type: cell-based, Enterococcus faecalis; conditions: Enterococcus faecalis, 18 h, read-out: Minimum Inhibitory Concentration, Ent. faecalis
Experimental: as §1

[6] = test system: B. cereus; test: microbe, parasite or virus in culture; type: cell-based, Bacillus cereus; conditions: Bacillus cereus, 18 h, read-out: Minimum Inhibitory Concentration, B. cereus
Experimental: as §1

[7] = test system: EMRSA-15 cells; test: Time-kill assay; type: cell-based, Staphylococcus aureus; conditions: for Time dependent kill, Mean Log CFU/ml / Time dependent kill, CFU/ml / Time dependent kill, Log CFU/ml: 3x MIC (24 ug/ml); for Time dependent kill, Mean Log CFU/ml: mean of 3 independent replicates
Experimental: Time-dependent kill assays were adapted from standard procedures and were all performed as previously using exponential-phase cultures of EMRA-15 MRSA and USA300 grown in MHB (1 × 10^6 CFU/mL). […] Experiments were performed in triplicates, and CFU/mL was calculated at different time points after overnight incubation of inoculated agar plates (MHA) at 37 °C. Kill curves were plotted with CFU/mL against time (h).

[8] = test system: E. coli K12; test: microbe, parasite or virus in culture; type: cell-based, Escherichia coli; conditions: Escherichia coli, K12; modified broth microdilution, cation-adjusted Mueller Hinton broth, inoculum 5 × 10^5 CFU/mL, 18 h, quadruplicate; highest concentration tested 512 μg/mL; read-out: Minimum Inhibitory Concentration, E. coli K12
Experimental: as §1

[9] = test system: Sal. Tyhimurium (SL1344); test: microbe, parasite or virus in culture; type: cell-based, Salmonella enterica serovar Typhimurium; conditions: Salmonella enterica; modified broth microdilution, cation-adjusted Mueller Hinton broth, inoculum 5 × 10^5 CFU/mL, 18 h, quadruplicate; highest concentration tested 512 μg/mL; read-out: Minimum Inhibitory Concentration, Sal. Tyhimurium
Experimental: as §1

[10] = test system: P. aeruginosa PAO1; test: microbe, parasite or virus in culture; type: cell-based, Pseudomonas aeruginosa; conditions: Pseudomonas aeruginosa, PAO1; modified broth microdilution, cation-adjusted Mueller Hinton broth, inoculum 5 × 10^5 CFU/mL, 18 h, quadruplicate; highest concentration tested 512 μg/mL; read-out: Minimum Inhibitory Concentration, P. aeruginosa PAO1
Experimental: as §1

[11] = test system: P. aeruginosa H174; test: microbe, parasite or virus in culture; type: cell-based, Pseudomonas aeruginosa; conditions: Pseudomonas aeruginosa, H174; modified broth microdilution, cation-adjusted Mueller Hinton broth, inoculum 5 × 10^5 CFU/mL, 18 h, quadruplicate; highest concentration tested 512 μg/mL; read-out: Minimum Inhibitory Concentration, P. aeruginosa H174
Experimental: as §1

[12] = test system: A. baumannii DSMZ 30007; test: microbe, parasite or virus in culture; type: cell-based, Acinetobacter baumannii; conditions: Acinetobacter baumannii, DSMZ30007; modified broth microdilution, cation-adjusted Mueller Hinton broth, inoculum 5 × 10^5 CFU/mL, 18 h, quadruplicate; highest concentration tested 512 μg/mL; read-out: Minimum Inhibitory Concentration, A. baumannii DSMZ 30007
Experimental: as §1

[13] = test system: A. baumannii S27379 Sen; test: microbe, parasite or virus in culture; type: cell-based, Acinetobacter baumannii; conditions: Acinetobacter baumannii, S27379SEN; sensitive hospital isolate; modified broth microdilution, cation-adjusted Mueller Hinton broth, inoculum 5 × 10^5 CFU/mL, 18 h, quadruplicate; highest concentration tested 512 μg/mL; read-out: Minimum Inhibitory Concentration, A. baumannii S27379 Sen
Experimental: as §1

[14] = test system: A. baumannii S15785 OXA-23/0XA-50; test: microbe, parasite or virus in culture; type: cell-based, Acinetobacter baumannii; conditions: Acinetobacter baumannii; modified broth microdilution, cation-adjusted Mueller Hinton broth, inoculum 5 × 10^5 CFU/mL, 18 h, quadruplicate; highest concentration tested 512 μg/mL; read-out: Minimum Inhibitory Concentration, A. baumannii S15785 OXA-23/0XA-50
Experimental: as §1

[15] = test system: A. baumannii IMI/MER-R; test: microbe, parasite or virus in culture; type: cell-based, Acinetobacter baumannii; conditions: Acinetobacter baumannii; imipenem/meropenem resistant; modified broth microdilution, cation-adjusted Mueller Hinton broth, inoculum 5 × 10^5 CFU/mL, 18 h, quadruplicate; highest concentration tested 512 μg/mL; read-out: Minimum Inhibitory Concentration, A. baumannii IMI/MER-R
Experimental: as §1

## CN[C@H](CC(C)C)C(=O)N[C@H]1C(=O)N[C@@H](CC(N)=O)C(=O)N[C@H]2C(=O)N[C@H]3C(=O)N[C@H](C(=O)N[C@H](C(=O)O)c4cc(O)cc(O)c4-c4cc3ccc4O)[C@H](O)c3ccc(c(Cl)c3)Oc3cc2cc(c3O[C@@H]2O[C@H](CO)[C@@H](O)[C@H](O)[C@H]2O[C@H]2C[C@](C)(N)[C@H](O)[C@H](C)O2)Oc2ccc(cc2Cl)[C@H]1O [Vancomycin]
[1]
  MIC: 2 µg/mL (≈ 1.38 µM)
[2]
  MIC: 2 µg/mL (≈ 1.38 µM)
[3]
  MIC: 2 µg/mL (≈ 1.38 µM)
[4]
  MIC: 2 µg/mL (≈ 1.38 µM)
[5]
  MIC: 2 µg/mL (≈ 1.38 µM)
[6]
  MIC: 2 µg/mL (≈ 1.38 µM)
[7]; 0 min
  Time dependent kill, Mean Log CFU/ml: 6.839 Log CFU/ml
[7]; 10 min
  Time dependent kill, Mean Log CFU/ml: 6.579 Log CFU/ml
[7]; 30 min
  Time dependent kill, Mean Log CFU/ml: 6.503 Log CFU/ml
[7]; 60 min
  Time dependent kill, Mean Log CFU/ml: 6.404 Log CFU/ml
[7]; 120 min
  Time dependent kill, Mean Log CFU/ml: 5.884 Log CFU/ml
[7]; 240 min
  Time dependent kill, Mean Log CFU/ml: 5.168 Log CFU/ml
[7]; 360 min
  Time dependent kill, Mean Log CFU/ml: 4.661 Log CFU/ml
[7]; 1440 min
  Time dependent kill, Mean Log CFU/ml: 0 Log CFU/ml
[7]; T0 min, Exp1
  Time dependent kill, CFU/ml: 7200000 CFU/ml
[7]; T0 min, Exp2
  Time dependent kill, CFU/ml: 7600000 CFU/ml
[7]; T0 min, Exp3
  Time dependent kill, CFU/ml: 6000000 CFU/ml
  Time dependent kill, Log CFU/ml: 6.778 Log CFU/ml
[7]; T10 min, Exp1
  Time dependent kill, CFU/ml: 3800000 CFU/ml
  Time dependent kill, Log CFU/ml: 6.58 Log CFU/ml
[7]; T10 min, Exp2
  Time dependent kill, CFU/ml: 3600000 CFU/ml
  Time dependent kill, Log CFU/ml: 6.5563 Log CFU/ml
[7]; T10 min, Exp3
  Time dependent kill, CFU/ml: 4000000 CFU/ml
  Time dependent kill, Log CFU/ml: 6.602 Log CFU/ml
[7]; T30 min, Exp1
  Time dependent kill, CFU/ml: 2800000 CFU/ml
  Time dependent kill, Log CFU/ml: 6.447 Log CFU/ml
[7]; T30 min, Exp2
  Time dependent kill, CFU/ml: 4800000 CFU/ml
  Time dependent kill, Log CFU/ml: 6.681 Log CFU/ml
[7]; T30 min, Exp3
  Time dependent kill, CFU/ml: 2400000 CFU/ml
  Time dependent kill, Log CFU/ml: 6.38 Log CFU/ml
[7]; T60 min, Exp1
  Time dependent kill, CFU/ml: 2000000 CFU/ml
  Time dependent kill, Log CFU/ml: 6.301 Log CFU/ml
[7]; T60 min, Exp2
  Time dependent kill, CFU/ml: 3400000 CFU/ml
  Time dependent kill, Log CFU/ml: 6.531 Log CFU/ml
[7]; T60 min, Exp3
  Time dependent kill, CFU/ml: 2400000 CFU/ml
  Time dependent kill, Log CFU/ml: 6.38 Log CFU/ml
[7]; T120 min, Exp1
  Time dependent kill, CFU/ml: 800000 CFU/ml
  Time dependent kill, Log CFU/ml: 5.903 Log CFU/ml
[7]; T120 min, Exp2
  Time dependent kill, CFU/ml: 700000 CFU/ml
  Time dependent kill, Log CFU/ml: 5.8451 Log CFU/ml
[7]; T120 min, Exp3
  Time dependent kill, CFU/ml: 800000 CFU/ml
  Time dependent kill, Log CFU/ml: 5.903 Log CFU/ml
[7]; T240 min, Exp1
  Time dependent kill, CFU/ml: 80000 CFU/ml
  Time dependent kill, Log CFU/ml: 4.9031 Log CFU/ml
[7]; T240 min, Exp2
  Time dependent kill, CFU/ml: 100000 CFU/ml
  Time dependent kill, Log CFU/ml: 5 Log CFU/ml
[7]; T240 min, Exp3
  Time dependent kill, CFU/ml: 400000 CFU/ml
  Time dependent kill, Log CFU/ml: 5.602 Log CFU/ml
[7]; T360 min, Exp1
  Time dependent kill, CFU/ml: 60000 CFU/ml
  Time dependent kill, Log CFU/ml: 4.778 Log CFU/ml
[7]; T360 min, Exp2
  Time dependent kill, CFU/ml: 40000 CFU/ml
  Time dependent kill, Log CFU/ml: 4.602 Log CFU/ml
[7]; T360 min, Exp3
  Time dependent kill, CFU/ml: 40000 CFU/ml
  Time dependent kill, Log CFU/ml: 4.602 Log CFU/ml
[7]; T1440 min, Exp1
  Time dependent kill, CFU/ml: 0 CFU/ml
  Time dependent kill, Log CFU/ml: 0 Log CFU/ml
[7]; T1440 min, Exp2
  Time dependent kill, CFU/ml: 0 CFU/ml
  Time dependent kill, Log CFU/ml: 0 Log CFU/ml
[7]; T1440 min, Exp3
  Time dependent kill, CFU/ml: 0 CFU/ml
  Time dependent kill, Log CFU/ml: 0 Log CFU/ml
[7]; EMRSA-15, 3× MIC, after 6 h
  reduction in viable cells, time-kill: ≥ 10^3 CFU/mL

## C[C@H]1COc2c(N3CCN(C)CC3)c(F)cc3c(=O)c(C(=O)O)cn1c23 [Levofloxacin]
[8]
  MIC: 0.03 µg/mL (≈ 0.083 µM)
[9]
  MIC: 0.12 µg/mL (≈ 0.332 µM)
[10]
  MIC: 0.06 µg/mL (≈ 0.166 µM)
[11]
  MIC: 0.5 µg/mL (≈ 1.38 µM)
[12]
  MIC: 0.25 µg/mL (≈ 0.692 µM)
[13]
  MIC: 0.12 µg/mL (≈ 0.332 µM)
[14]
  MIC: > 512 µg/mL
[15]
  MIC: 256 µg/mL (≈ 708 µM)
